Data as given in PubChem BioAssay (NCI).
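Growth conditions: 96-well plates. Treatment: test compound, 48 hours, 5 concentrations. Analysis: linear interpolation between bracketing concentrations; unreached endpoints set to highest concentration. TGI: concentration producing complete growth inhibition.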

Experiments:
Assay in all cases: NCI tumour cell line growth inhibition, 48 h
HCC-2998 colon = system: HCC-2998 colon
OVCAR-4 ovarian = system: OVCAR-4 ovarian
A498 renal = system: A498 renal
UACC-257 melanoma = system: UACC-257 melanoma
NCI-H522 lung = system: NCI-H522 lung
NCI-H460 lung = system: NCI-H460 lung
HOP-18 NSCLC = system: HOP-18 NSCLC
EKVX NSCLC = system: EKVX NSCLC
SK-MEL-2 melanoma = system: SK-MEL-2 melanoma
NCI-H23 lung = system: NCI-H23 lung
M14 melanoma = system: M14 melanoma
CCRF-CEM leukemia = system: CCRF-CEM leukemia
OVCAR-3 ovarian = system: OVCAR-3 ovarian
IGROV1 ovarian = system: IGROV1 ovarian
SNB-78 CNS = system: SNB-78 CNS
SR leukemia = system: SR leukemia
HT29 colon = system: HT29 colon
MALME-3M melanoma = system: MALME-3M melanoma
HCT-116 colon = system: HCT-116 colon
TK-10 renal = system: TK-10 renal
U251 CNS = system: U251 CNS
SNB-75 CNS = system: SNB-75 CNS
KM20L2 colon = system: KM20L2 colon
LXFL 529 NSCLC = system: LXFL 529 NSCLC
SF-268 CNS = system: SF-268 CNS
OVCAR-8 ovarian = system: OVCAR-8 ovarian
LOX IMVI melanoma = system: LOX IMVI melanoma
OVCAR-5 ovarian = system: OVCAR-5 ovarian
SF-539 CNS = system: SF-539 CNS
M19-MEL melanoma = system: M19-MEL melanoma
SK-OV-3 ovarian = system: SK-OV-3 ovarian
ACHN renal = system: ACHN renal
COLO 205 colon = system: COLO 205 colon
XF 498 CNS = system: XF 498 CNS
SK-MEL-28 melanoma = system: SK-MEL-28 melanoma
HOP-92 NSCLC = system: HOP-92 NSCLC
SF-295 CNS = system: SF-295 CNS
SK-MEL-5 melanoma = system: SK-MEL-5 melanoma
RXF-631 renal = system: RXF-631 renal
K-562 leukemia = system: K-562 leukemia
DLD-1 colon = system: DLD-1 colon
SW-620 colon = system: SW-620 colon
DMS 273 small cell lung = system: DMS 273 small cell lung
HCT-15 colon = system: HCT-15 colon
UACC-62 melanoma = system: UACC-62 melanoma
UO-31 renal = system: UO-31 renal
HOP-62 NSCLC = system: HOP-62 NSCLC
DMS 114 small cell lung = system: DMS 114 small cell lung
HL-60(TB) leukemia = system: HL-60(TB) leukemia
786-0 renal = system: 786-0 renal
NCI-H226 lung = system: NCI-H226 lung
SNB-19 CNS = system: SNB-19 CNS
SN12C renal = system: SN12C renal
RPMI-8226 leukemia = system: RPMI-8226 leukemia
KM12 colon = system: KM12 colon
RXF 393 renal = system: RXF 393 renal
MOLT-4 leukemia = system: MOLT-4 leukemia
A549 NSCLC = system: A549 NSCLC
CAKI-1 renal = system: CAKI-1 renal

Compound: CS(=O)(=O)ON1C(=O)c2ccc(N)cc2C1=O
- TGI (HCC-2998 colon): > 100 µM
- TGI (OVCAR-4 ovarian): > 100 µM
- TGI (A498 renal): > 100 µM
- TGI (UACC-257 melanoma): > 31.6 µM
- TGI (NCI-H522 lung): 43.2 µM
- TGI (NCI-H460 lung): > 100 µM
- TGI (HOP-18 NSCLC): > 100 µM
- TGI (EKVX NSCLC): > 100 µM
- TGI (SK-MEL-2 melanoma): > 100 µM
- TGI (NCI-H23 lung): > 100 µM
- TGI (M14 melanoma): > 100 µM
- TGI (CCRF-CEM leukemia): > 76.7 µM
- TGI (OVCAR-3 ovarian): > 100 µM
- TGI (IGROV1 ovarian): > 100 µM
- TGI (SNB-78 CNS): > 100 µM
- TGI (SR leukemia): > 68.8 µM
- TGI (HT29 colon): > 100 µM
- TGI (MALME-3M melanoma): > 100 µM
- TGI (HCT-116 colon): > 100 µM
- TGI (TK-10 renal): > 100 µM
- TGI (U251 CNS): > 100 µM
- TGI (SNB-75 CNS): > 100 µM
- TGI (KM20L2 colon): > 100 µM
- TGI (LXFL 529 NSCLC): > 100 µM
- TGI (SF-268 CNS): > 95.7 µM
- TGI (OVCAR-8 ovarian): 60.8 µM
- TGI (LOX IMVI melanoma): > 100 µM
- TGI (OVCAR-5 ovarian): > 100 µM
- TGI (SF-539 CNS): > 100 µM
- TGI (M19-MEL melanoma): > 100 µM
- TGI (SK-OV-3 ovarian): > 100 µM
- TGI (ACHN renal): > 100 µM
- TGI (COLO 205 colon): > 100 µM
- TGI (XF 498 CNS): > 100 µM
- TGI (SK-MEL-28 melanoma): > 88.6 µM
- TGI (HOP-92 NSCLC): > 100 µM
- TGI (SF-295 CNS): > 100 µM
- TGI (SK-MEL-5 melanoma): > 100 µM
- TGI (RXF-631 renal): > 100 µM
- TGI (K-562 leukemia): > 100 µM
- TGI (DLD-1 colon): > 100 µM
- TGI (SW-620 colon): > 100 µM
- TGI (DMS 273 small cell lung): > 100 µM
- TGI (HCT-15 colon): > 100 µM
- TGI (UACC-62 melanoma): > 100 µM
- TGI (UO-31 renal): > 100 µM
- TGI (HOP-62 NSCLC): > 100 µM
- TGI (DMS 114 small cell lung): > 100 µM
- TGI (HL-60(TB) leukemia): 46.5 µM
- TGI (786-0 renal): > 100 µM
- TGI (NCI-H226 lung): > 100 µM
- TGI (SNB-19 CNS): > 100 µM
- TGI (SN12C renal): > 100 µM
- TGI (RPMI-8226 leukemia): 61.5 µM
- TGI (KM12 colon): > 100 µM
- TGI (RXF 393 renal): > 71 µM
- TGI (MOLT-4 leukemia): > 69.3 µM
- TGI (A549 NSCLC): > 100 µM

Compound: COc1c(CC(C)=O)c2ccccc2n1C(C)=O
- TGI (HCC-2998 colon): > 100 µM
- TGI (OVCAR-4 ovarian): > 100 µM
- TGI (A498 renal): > 100 µM
- TGI (UACC-257 melanoma): > 100 µM
- TGI (NCI-H460 lung): > 100 µM
- TGI (HOP-18 NSCLC): > 100 µM
- TGI (EKVX NSCLC): > 100 µM
- TGI (SK-MEL-2 melanoma): > 100 µM
- TGI (NCI-H23 lung): > 100 µM
- TGI (M14 melanoma): > 100 µM
- TGI (CCRF-CEM leukemia): > 100 µM
- TGI (OVCAR-3 ovarian): > 100 µM
- TGI (IGROV1 ovarian): > 100 µM
- TGI (SNB-78 CNS): > 100 µM
- TGI (SR leukemia): > 100 µM
- TGI (HT29 colon): > 100 µM
- TGI (HCT-116 colon): > 100 µM
- TGI (U251 CNS): > 100 µM
- TGI (SNB-75 CNS): > 100 µM
- TGI (KM20L2 colon): > 100 µM
- TGI (LXFL 529 NSCLC): > 100 µM
- TGI (OVCAR-8 ovarian): > 100 µM
- TGI (SF-539 CNS): > 100 µM
- TGI (M19-MEL melanoma): > 100 µM
- TGI (SK-OV-3 ovarian): > 100 µM
- TGI (CAKI-1 renal): > 100 µM
- TGI (ACHN renal): > 100 µM
- TGI (COLO 205 colon): > 100 µM
- TGI (XF 498 CNS): > 100 µM
- TGI (SK-MEL-28 melanoma): > 100 µM
- TGI (HOP-92 NSCLC): > 100 µM
- TGI (SF-295 CNS): > 100 µM
- TGI (RXF-631 renal): > 100 µM
- TGI (K-562 leukemia): > 100 µM
- TGI (DLD-1 colon): > 100 µM
- TGI (SW-620 colon): > 100 µM
- TGI (DMS 273 small cell lung): > 100 µM
- TGI (HCT-15 colon): > 100 µM
- TGI (UACC-62 melanoma): > 100 µM
- TGI (UO-31 renal): > 100 µM
- TGI (HOP-62 NSCLC): > 100 µM
- TGI (HL-60(TB) leukemia): > 100 µM
- TGI (786-0 renal): > 100 µM
- TGI (SNB-19 CNS): > 100 µM
- TGI (SN12C renal): > 100 µM
- TGI (RPMI-8226 leukemia): > 100 µM
- TGI (KM12 colon): > 100 µM
- TGI (RXF 393 renal): > 100 µM
- TGI (MOLT-4 leukemia): > 100 µM
- TGI (A549 NSCLC): > 100 µM
